From ChEMBL document CHEMBL1131718, “Syntheses of (+/-)-shinflavanone and its structural analogues as potent inhibitors of bone resorption pits formation” (Bioorg Med Chem Lett, 1999)
Converted amounts (≈) assume the structure as drawn.

Experiments:
Type in all cases: functional
[1] = Cytotoxicity of compound was measured on osteoclastic cells.
[2] = Ability to inhibit the resorption pits formation by osteoclast-like cell(OCL) induced by 1-alpha,25-dihydroxy vitamin D3.
[3] = Ability to inhibit the resorption pits formation by osteoclast-like cell(OCL) induced by 1-alpha,25-dihydroxy vitamin D3 at conc. 0.37 ug/ml.
[4] = Ability to inhibit the resorption pits formation by osteoclast-like cell(OCL) induced by 1-alpha,25-dihydroxy vitamin D3 at conc. 1.11 ug/ml.
[5] = Ability to inhibit the resorption pits formation by osteoclast-like cell(OCL) induced by 1-alpha,25-dihydroxy vitamin D3 at conc. 10.00 ug/ml.
[6] = Ability to inhibit the resorption pits formation by osteoclast-like cell(OCL) induced by 1-alpha,25-dihydroxy vitamin D3 at conc. 3.33 ug/ml.
[7] = Bone resorption pits formation by osteoclast-like cell(OCL) induced by 1-alpha,25-dihydroxy vitamin D3 at 0.37 ug/ml concentration
[8] = Bone resorption pits formation by osteoclast-like cell(OCL) induced by 1-alpha,25-dihydroxy vitamin D3 at 1.11 ug/ml concentration
[9] = Bone resorption pits formation by osteoclast-like cell(OCL) induced by 1-alpha,25-dihydroxy vitamin D3 at 10 ug/ml concentration
[10] = Bone resorption pits formation by osteoclast-like cell(OCL) induced by 1-alpha,25-dihydroxy vitamin D3 at 3.33 ug/ml concentration

| SMILES | CC50 [1] [µg/mL] | IC50 [2] [µg/mL] | inhibition at 0.37 µg/mL [3] [%] | inhibition at 1.11 µg/mL [4] [%] | inhibition at 10 µg/mL [5] [%] | inhibition at 3.33 µg/mL [6] [%] | No. of pits [7] | No. of pits [8] | No. of pits [9] | No. of pits [10] |
| --- | --- | --- | --- | --- | --- | --- | --- | --- | --- | --- |
| CC(C)=CCc1cc(C2CC(=O)c3ccc4c(c3O2)C=CC(C)(C)O4)ccc1O (centres undefined) | 16.8 (≈ 43 µM) | 0.7 (≈ 1.79 µM) | 48.3 | 54.1 | 78.1 | 62.2 | 74 | 68 | 32 | 54 |
| CC(C)=CCc1cc(C2CC(=O)c3cc(CC=C(C)C)c(O)c(CC=C(C)C)c3O2)ccc1O (centres undefined) | 10.4 (≈ 22.6 µM) | 10.9 (≈ 23.7 µM) | < 5 | 18.9 | 45.2 | 24.4 | 150 | 120 | 80 | 108 |
| CC(C)=CCc1cc(C2CC(=O)c3cc(CC=C(C)C)c(O)cc3O2)ccc1O (centres undefined) | 18.2 (≈ 46.4 µM) | 5.7 (≈ 14.5 µM) | 21.7 | 41.2 | 84.2 | 41.3 | 112 | 87 | 23 | 84 |
| CO[C@H]1[C@@H](OC)C[C@H](C)[C@@H](OC)C2=CC(=O)C=C(NC(=O)/C(C)=C/C=C/[C@H](OC)[C@@H](OC(N)=O)/C(C)=C/[C@@H]1C)C2=O [HERBIMYCIN] | 1.72 (≈ 2.99 µM) | 1.1 (≈ 1.91 µM) | 37.8 | 50.7 | – | – | – | – | – | – |
